# Results taken from paper PMC9829398 (Plant Biotechnology Journal, 2022).
# Entries after “also recorded” stand apart in the source; their conditions may differ.
# How the values were obtained:
# [1] = test system: FER cytoplasmic domain (FER‐CD); experiment: FER-CD kinase activity (autophosphorylation), high-throughput screening, Kinase-Lumi luminescent ATP consumption; type: biochemical, Arabidopsis thaliana; settings: in vitro autophosphorylation
# Meloidogyne incognita [2] = experiment: Rice root-knot nematode disease, preventive root treatment; type: in vivo; settings: roots pretreated twice with 3 mL of 5 μM, 800 pre-J2s
# HERK1‐CD = experiment: HERK1-CD kinase activity (autophosphorylation); type: biochemical, Arabidopsis thaliana; settings: 5 μM
# Ralstonia solanacearum = type: in vivo, tobacco; settings: 5 μM irrigated twice two days after inoculation
# tobacco = experiment: Growth of tobacco (shoot and root fresh weight, Day 25); settings: 5 μM irrigated twice
# [3] = test system: ROS in Col‐0 and fer‐4 roots; experiment: ROS detection in plant roots (H2DCF-DA fluorescence); settings: 5 μM for 15 min, vs DMSO and lapatinib
# ANJEA‐CD = experiment: ANJEA-CD kinase activity (autophosphorylation); type: biochemical, Arabidopsis thaliana; settings: 5 μM
# Meloidogyne incognita [4] = experiment: Established rice root-knot nematode disease (inhibitor applied after inoculation); type: in vivo; settings: irrigated three days after inoculation
Compound,Effect on FER kinase activity [1],Control of rice root-knot nematode disease (Meloidogyne incognita [2]),Inhibition rate of HERK1-CD kinase activity (HERK1‐CD),Effect on established tobacco bacterial wilt (Ralstonia solanacearum),Growth (biomass) of tobacco shoots and roots (tobacco),Production of ROS in Col-0 roots [3],Inhibition rate of ANJEA-CD kinase activity (ANJEA‐CD),Effect on established rice root-knot nematode disease (Meloidogyne incognita [4])
c1nc2nc(Nc3ccc(N4CCOCC4)cc3)nc(NC3CCCCC3)c2[nH]1 [Reversine],inhibited the kinase activity of FER,better preventive effects than staurosporine; also recorded: alleviated soil‐borne diseases,lower than 55%,could not completely prevent the occurrence of the diseases or cure already diseased plants,did not observably affect the biomass,significantly increased the production of ROS,lower than 55%,could not completely prevent the occurrence of the diseases or cure already diseased plants
O=C(O)c1cc(N(Cc2ccccc2O)Cc2cc(O)ccc2O)ccc1O [Lavendustin A],inhibited the kinase activity of FER,better preventive effects than staurosporine; also recorded: alleviated soil‐borne diseases,lower than 55%,could not completely prevent the occurrence of the diseases or cure already diseased plants,significantly improved the growth of tobacco shoots and roots,significantly increased the production of ROS,lower than 55%,could not completely prevent the occurrence of the diseases or cure already diseased plants
